Source: patent US6414020B2, “Amidino protease inhibitors” (3- Dimensional Pharmaceuticals, Inc., priority 1995, dated 2002)
Structures can show the parent of a compound that is named as a salt.

How the values were obtained:
Assay type in all cases: biochemical
bovine trypsin = molecular target: T1, bovine trypsin (Bos taurus, UniProt P00760); assay: In vitro inhibition of purified trypsin, Ki determination (p-nitroanilide substrate hydrolysis); settings: Enzyme: Trypsin; substrate Bz-Phe-Val-Arg-pNA 14 μM, 37° C., pH 7.5
T1 construct: Purified bovine trypsin was diluted into assay buffer; purchased Sigma
T1 sequence (P00760 24-246): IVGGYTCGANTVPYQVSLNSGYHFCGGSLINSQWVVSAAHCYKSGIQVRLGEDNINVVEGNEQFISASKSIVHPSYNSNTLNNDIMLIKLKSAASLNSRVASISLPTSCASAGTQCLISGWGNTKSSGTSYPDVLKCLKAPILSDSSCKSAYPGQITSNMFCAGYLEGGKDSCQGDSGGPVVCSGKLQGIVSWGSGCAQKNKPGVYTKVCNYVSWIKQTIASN
Source text: (§1) All buffer salts were obtained from Sigma Chemical Company (St. Louis, Mo.), and were of the highest purity available. The enzyme substrates, N-benzoyl-Phe-Val-Arg-p-nitroanilide (SigmaB7632),N-benzoyl-Ile-Glu-Gly-Arg-p-nitroanilide (Sigma B2291), N-p-tosyl-Gly-Pro-Lys-p-nitroanilide (Sigma T6140), and N-succinyl-Ala-Ala-Pro-Phe-p-nitroanilide (Sigma S7388) were all obtained from Sigma.
(§2) Human α-thrombin and human factor Xa were obtained from Enzyme Research Laboratories (South Bend, Indiana). Bovine trypsin was obtained from Sigma.
(§3) All assays are based on the ability of the test compound to inhibit the enzyme catalyzed hydrolysis of a peptide p-nitroanilide substrate. […] In general, substrate concentrations are lower than the experimentally determined value for Km. […]
(§4) In a typical Ki determination, into each well of a 96 well plate is pipetted 280 uL of substrate solution, 10 μL of inhibitor solution, and the plate allowed to thermally equilibrate at 37° C. in a Molecular Devices plate reader for >10 minutes. Reactions were initiated by the addition of a 20 μL aliquot of enzyme, and the absorbance increase at 405 nm is recorded for 15 minutes. […] The ratio of the velocity (rate of the change in absorbance as a function of time) for a sample containing no inhibitor is divided by the velocity of a sample containing inhibitor, and is plotted as a finction of inhibitor concentration. […]

human α-thrombin = molecular target: T2, human α-thrombin (Homo sapiens, UniProt P00734); assay: In vitro inhibition of purified thrombin, Ki determination (p-nitroanilide substrate hydrolysis); settings: Enzyme: Thrombin; substrate Suc-Ala-Ala-Pro-Arg-pNA 20 μM, 37° C., pH 7.5
T2 construct: Purified human a-thrombin was diluted into assay buffer; purchased Enzyme Research Laboratories (South Bend, Indiana)
Source text: as §1, §2
All assays are based on the ability of the test compound to inhibit the enzyme catalyzed hydrolysis of a peptide p-nitroanilide substrate. In a typical Ki determination, substrate is prepared in DMSO, and diluted into an assay buffer consisting of 50 mM HEPES, 200 mM NaCl, pH 7.5. The final concentration for each of the substrates is listed below. In general, substrate concentrations are lower than the experimentally determined value for Km. Test compounds are prepared as a 0.16 mg/mL solution in DMSO. Dilutions are prepared in DMSO yielding 8 final concentrations encompassing a 200-fold concentration range. Enzyme solutions are prepared at the concentrations listed below in assay buffer.
In a typical Ki determination, into each well of a 96 well plate is pipetted 280 uL of substrate solution, 10 μL of inhibitor solution, and the plate allowed to thermally equilibrate at 37° C. in a Molecular Devices plate reader for >10 minutes. Reactions were initiated by the addition of a 20 μL aliquot of enzyme, and the absorbance increase at 405 nm is recorded for 15 minutes. Data corresponding to less than 10% of the total substrate hydrolysis were used in the calculations. The ratio of the velocity (rate of the change in absorbance as a function of time) for a sample containing no inhibitor is divided by the velocity of a sample containing inhibitor, and is plotted as a finction of inhibitor concentration. The data are fit to a linear regression, and the value of the slope of the line calculated. The inverse of the slope is the experimentally determined Ki value.
Thrombin activity was assessed as the ability to hydrolyze the substrate Suc-Ala-Ala-Pro-Arg-pNA. Substrate solutions were prepared at a concentration of 20 μM (20 uM<<Km=180 μM) in assay buffer. Final DMSO concentration was 0.3%. Purified human a-thrombin was diluted into assay buffer to a concentration of […]. Final reagent concentrations were: [thrombin] ═0.5 nM, [Suc-Ala-Ala-Pro-Arg-pNA]=20 μM.

bovine α-chymotrypsin = molecular target: T3, bovine α-chymotrypsin (Bos taurus, UniProt P00766); assay: In vitro inhibition of purified chymotrypsin, Ki determination (p-nitroanilide substrate hydrolysis); settings: Enzyme: Chymotrypsin; substrate Suc-Ala-Ala-Pro-Phe-pNA 14 μM, 37° C., pH 7.5
T3 construct: Purified bovine x-chymotrypsin was diluted into assay buffer
Source text: as §1
All assays are based on the ability of the test compound to inhibit the enzyme catalyzed hydrolysis of a peptide p-nitroanilide substrate. In a typical Ki determination, substrate is prepared in DMSO, and diluted into an assay buffer consisting of 50 mM HEPES, 200 mM NaCl, pH 7.5. […] In general, substrate concentrations are lower than the experimentally determined value for Km. […]
as §4

human factor Xa = molecular target: T4, human factor Xa (Homo sapiens, UniProt P00742); assay: In vitro inhibition of purified factor Xa, Ki determination (p-nitroanilide substrate hydrolysis); settings: Enzyme: Factor Xa; substrate Bz-Ile-Glu-Gly-Arg-pNA 51 μM, 37° C., pH 7.5
T4 construct: purchased Enzyme Research Laboratories (South Bend, Indiana)
T4 sequence (P00742 235-488 limits assumed): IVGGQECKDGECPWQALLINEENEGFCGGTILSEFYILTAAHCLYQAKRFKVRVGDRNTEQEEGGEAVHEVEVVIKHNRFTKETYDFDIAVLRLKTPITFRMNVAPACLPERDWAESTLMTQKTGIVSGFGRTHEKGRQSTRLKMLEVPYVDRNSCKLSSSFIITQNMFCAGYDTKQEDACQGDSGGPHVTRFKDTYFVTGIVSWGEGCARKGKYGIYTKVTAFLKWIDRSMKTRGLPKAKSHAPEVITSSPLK
T4 sequence (P00742 41-179 limits assumed): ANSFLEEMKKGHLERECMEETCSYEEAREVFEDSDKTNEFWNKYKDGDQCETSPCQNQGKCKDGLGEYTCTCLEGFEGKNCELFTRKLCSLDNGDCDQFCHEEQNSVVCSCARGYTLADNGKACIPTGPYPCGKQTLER
Source text: as §1, §2, §3, §4

| Structure (SMILES) | Ki (human α-thrombin) | other results |
| --- | --- | --- |
| Cc1cc(OCc2cccc(C(=N)NO)c2)cc(OS(=O)(=O)c2ccccc2Cl)c1 [Example 7, 2-Chlorobenzenesutronic acid 3-[[3-(N-hydroxy)amidinophenyl]methoxy-5-methylphenyl ester hydrochloride] | – | Ki (bovine trypsin): 5230 nM |
| CC(=N)N1CCC(COc2cc(C)cc(OS(=O)(=O)c3cccc(Cl)c3)c2)CC1 [Example 5, 3-Chlorobenzenesulfonic acid 3-[[(1-acetimidoyl)piperidin-4-yl]methoxyl]-5-methylphenyl ester hydrochloride] | 4860 nM | – |
| Cc1cc(OCCCCCC(=N)N)cc(OS(=O)(=O)c2ccccc2Cl)c1 [Example 18, 2-Chlorobenzenesulfonic acid 3-[5-amidinopentyloxy]-5-methylphlenyl ester acetic acid salt] | – | Ki (bovine α-chymotrypsin): 6290 nM |
| Cc1cc(OCCCC(=N)N)cc(OS(=O)(=O)c2ccccc2Cl)c1 [Example 14, 2-Chlorobenzenesulfonic acid 3-[3-amidinopropoxy]-5-methylphenyl ester hydrochloride] | 570 nM | – |
| CC(=N)N1CCC(COc2cc(C)cc(OS(=O)(=O)c3ccccc3Cl)c2)CC1 [Example 1, 2-Chlorobenzenesulfonic acid 3-[(1-acetimidoylpiperidin-4-yl)methoxy]-5-methylphenyl ester hydrochloride] | 1650 nM | – |
| CC(=N)N1CCC(COc2cc(C)cc(OS(=O)(=O)c3cccc(Cl)c3Cl)c2)CC1 [Example 8, 2,3-Dichlorobenzenesulfonic acid 3-[[(1-acetimidoyl)piperidin-4-yl]methoxy]-5-methylphenyl ester hydrochloride] | 1720 nM | – |
| Cc1cc(OCc2cccc(C(=N)N)c2)cc(OS(=O)(=O)c2ccccc2Cl)c1 [Example 6, 2-Chlorobenzenesulfonic acid 3-[(3amidinophenyl)methoxy]-5-methylphenyl ester hydrochloride] | – | Ki (human factor Xa): 2720 nM |
